Data from US8425917B2 (priority 2001, dated 2013).
Entries after “also recorded” stand apart in the source; their conditions may differ. Where two headings read alike, the source gives them in different places. Square brackets hold non-standard residues; d marks the D form. Peptide text beside a SMILES is read from it. * marks the point of attachment. Sta = CC(C)C[C@H](N)[C@@H](O)CC(=O)O; Isovaleryl = CC(C)CC(=O)*; Cbz = O=C(OCc1ccccc1)*

Legend:
Format in all cases: cell-based, mouse (C57BL/6)
[1] = tested on: EtxB-mediated epitope delivery in JAWSII cells
[2] = tested on: EtxB-mediated epitope delivery in JAWSII cells; remark: listed apart in the source
JAWSII cells = tested on: JAWSII cells
JAWSII dendritic cells = tested on: JAWSII dendritic cells
[3] = tested on: MHC-I/SIINFEKL complex on JAWSII cells

## Bafilomycin A1 [BafA1]
[1]
  effect on EtxB-mediated epitope presentation (conjugate not specified): inhibited
  effect on direct loading and presentation of free 8mer peptide: did not inhibit
  effect on epitope delivery by EtxB-9mer, -16mer, -19mer, -26mer and -26mer* conjugates: complete inhibition
  effect on epitope presentation by EtxB-31mer: prevented
[2]
  effect on epitope delivery by EtxB-9mer, -16mer, -19mer, -26mer and -26mer* conjugates: complete inhibition
  effect on epitope presentation by EtxB-31mer: prevented
JAWSII cells
  effect on MHC-I/SIINFEKL complexes in cells treated with EtxB-19mer or EtxB-31mer: no detectable MHC-I/SIINFEKL complexes were observed

## CC[C@@]1([C@@H]2O[C@@H]([C@H]3O[C@@](O)(CO)[C@H](C)C[C@@H]3C)C[C@@H]2C)CC[C@H]([C@]2(C)CC[C@]3(C[C@H](O)[C@@H](C)[C@@H]([C@@H](C)[C@@H](OC)[C@H](C)C(=O)O)O3)O2)O1 [monensin]
[1]
  effect on EtxB-mediated epitope presentation (conjugate not specified): prevented; also recorded: inhibited
  effect on direct loading and presentation of free 8mer peptide: unaffected

## CC(=O)N[C@@H](CC(C)C)C(=O)N[C@@H](CC(C)C)C(=O)N[C@H](C=O)CCCNC(=N)N [leupeptin]
[1]
  effect on EtxB-mediated epitope presentation (conjugate not specified): no significant effects

## CAVGAGATAEESIINFEKL [19mer]
JAWSII dendritic cells
  extent of class I epitope presentation (IL-2 release): virtually no presentation occurred

## SIINFEKL [8mer]
[3]
  MHC-I/SIINFEKL complexes (shift in fluorescence): clear and similar shift in fluorescence
JAWSII dendritic cells
  extent of class I epitope presentation (IL-2 release): significantly stimulated class I presentation
  kinetics of class I peptide presentation (in words): peptide presentation at the earliest time point tested

## CC(C)C[C@@H](C=O)NC(=O)[C@H](CC(C)C)NC(=O)[C@H](CC(C)C)NC(=O)OCc1ccccc1 [MG132] (Cbz-Leu-Leu-Leu-aldehyde)
[1]
  effect on direct loading and presentation of free 8mer peptide: failed to prevent
  effect on epitope presentation by EtxB-19mer: failed to prevent
  effect on epitope presentation by EtxB-31mer: completely blocked

## CC(C)CC(=O)N[C@H](C(=O)N[C@H](C(=O)N[C@@H](CC(C)C)[C@@H](O)CC(=O)N[C@@H](C)C(=O)N[C@@H](CC(C)C)[C@@H](O)CC(=O)O)C(C)C)C(C)C [pepstatin] (Isovaleryl-VV[Sta]A[Sta]-OH)
[1]
  effect on extent of EtxB-mediated presentation of the 26mer peptide: no effect

## CC(C)C[C@H](NC(=O)[C@@H](O)[C@H](N)Cc1ccccc1)C(=O)O [bestatin]
[1]
  effect on EtxB-mediated epitope presentation (conjugate not specified): no significant effects

## CC[C@H](C)[C@H](NC(=O)[C@H]([C@@H](C)CC)N(C)C(C)=O)C(=O)N[C@H](C(=O)N[C@@H](CC(C)C)C(=O)[C@@]1(C)CO1)[C@@H](C)O [epoxomicin]
[1]
  effect on direct loading and presentation of free 8mer peptide: no inhibition of epitope presentation was observed
  effect on epitope presentation by EtxB-19mer: no inhibition of epitope presentation was observed
  effect on epitope presentation by EtxB-31mer: completely blocked
[2]
  effect on epitope presentation by EtxB-19mer: no inhibition of epitope presentation was observed
  effect on epitope presentation by EtxB-31mer: completely blocked
JAWSII cells
  effect on MHC-I/SIINFEKL staining in cells treated with EtxB-19mer: normal co-localisation of WGA and MHC-I/SIINFEKL complexes was observed
  effect on MHC-I/SIINFEKL staining in cells treated with EtxB-31mer: no staining with MHC-I/SIINFEKL-specific antibodies was obtained

## CC(=O)N[C@@H](CSC(=O)[C@]1([C@@H](O)C(C)C)NC(=O)[C@H](C)[C@@H]1O)C(=O)O [lactacystin]
[1]
  effect on direct loading and presentation of free 8mer peptide: failed to prevent
  effect on epitope presentation by EtxB-19mer: failed to prevent
  effect on epitope presentation by EtxB-31mer: completely blocked

## c1cnc2c(c1)ccc1cccnc12 [1,10-phenanthroline]
[1]
  effect on EtxB-mediated epitope presentation (conjugate not specified): found to inhibit

## Brefeldin A [BFA]
[1]
  effect on direct loading and presentation of free 8mer peptide: did not inhibit
  effect on epitope delivery by EtxB-9mer, -16mer, -19mer, -26mer and -26mer* conjugates: complete inhibition
  effect on epitope presentation by EtxB-31mer: prevented
[2]
  effect on epitope delivery by EtxB-9mer, -16mer, -19mer, -26mer and -26mer* conjugates: complete inhibition
  effect on epitope presentation by EtxB-31mer: prevented
JAWSII cells
  effect on MHC-I/SIINFEKL complexes in cells treated with EtxB-19mer or EtxB-31mer: no detectable MHC-I/SIINFEKL complexes were observed

## CSIINFEKL [9mer]
JAWSII dendritic cells
  extent of class I epitope presentation (IL-2 release): significantly stimulated class I presentation
